Results published in ChEMBL document CHEMBL1201862, “PubChem BioAssay data set” (2004).
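All cell lines were grown in 96-well plates and treated with compound for 48 hours. GI50 is the concentration that inhibits growth by half.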 Calls of active or inactive are those of the source. No stated cut-off is given here; in the data, active = GI50 up to about 1.1 µM and inactive = higher.

Tests used:
Assay in all cases: NCI anticancer screen, dose series, 48 h
[1] = test system: A498
[2] = test system: A549
[3] = test system: ACHN
[4] = test system: CAKI-1
[5] = test system: CCRF-CEM
[6] = test system: COLO 205
[7] = test system: DU-145
[8] = test system: EKVX
[9] = test system: HCT-116
[10] = test system: HCT-15
[11] = test system: HL-60
[12] = test system: HOP-62
[13] = test system: HOP-92
[14] = test system: HT-29
[15] = test system: Hs-578T
[16] = test system: K562
[17] = test system: KM12
[18] = test system: LOX IMVI
[19] = test system: M14
[20] = test system: MCF7
[21] = test system: MDA-MB-231
[22] = test system: MDA-MB-435
[23] = test system: MOLT-4
[24] = test system: Malme-3M
[25] = test system: NCI-H226
[26] = test system: NCI-H23
[27] = test system: NCI-H460
[28] = test system: NCI/ADR-RES
[29] = test system: OVCAR-3
[30] = test system: OVCAR-5
[31] = test system: OVCAR-8
[32] = test system: PC-3
[33] = test system: RPMI-8226
[34] = test system: RXF 393
[35] = test system: SF-268
[36] = test system: SF-295
[37] = test system: SF-539
[38] = test system: SK-MEL-28
[39] = test system: SK-MEL-5
[40] = test system: SK-OV-3
[41] = test system: SN12C
[42] = test system: SNB-19
[43] = test system: SNB-75
[44] = test system: SR
[45] = test system: SW-620
[46] = test system: T47D
[47] = test system: TK-10
[48] = test system: U-251
[49] = test system: UACC-257
[50] = test system: UACC-62
[51] = test system: UO-31
[52] = test system: 786-0
[53] = test system: HCC 2998
[54] = test system: IGROV-1
[55] = test system: OVCAR-4

Measured: GI50

CC(=O)O/N=C/c1c2ccccc2cc2ccccc12
56.1 µM: [10]
inactive: [1] 24.9 µM | [2] 47.9 µM | [3] 23.8 µM | [4] 82.4 µM | [5] > 100 µM | [6] > 100 µM | [7] > 100 µM | [8] 27.5 µM | [9] 41.6 µM | [11] > 100 µM | [12] 30 µM | [13] > 100 µM | [14] 57.7 µM | [15] 67.1 µM | [16] 85.7 µM | [17] 61.8 µM | [18] > 100 µM | [19] > 100 µM | [20] 78.2 µM | [21] 20.9 µM | [22] 38 µM | [23] > 100 µM | [24] 47 µM | [25] 46.9 µM | [26] 76.6 µM | [27] 51.8 µM | [28] 56.8 µM | [29] > 100 µM | [30] > 100 µM | [31] 19.1 µM | [32] > 100 µM | [33] 51.6 µM | [34] 21.7 µM | [35] 61.1 µM | [36] 47.4 µM | [37] 51.1 µM | [38] 89.3 µM | [39] 58.9 µM | [40] 22.2 µM | [41] 65.3 µM | [42] 50.5 µM | [43] 22.1 µM | [44] 28 µM | [45] 50.8 µM | [46] 81.7 µM | [47] 83 µM | [48] 45.6 µM | [49] > 100 µM | [50] 40.9 µM | [51] 36.2 µM

CN1CCC2(CC1)/C(=N/C1CCCCC1)NC(=S)N2c1ccccc1
inactive: [52] > 100 µM | [1] > 100 µM | [2] > 100 µM | [3] 89.3 µM | [5] > 100 µM | [6] > 100 µM | [7] > 100 µM | [8] > 100 µM | [53] > 100 µM | [9] > 100 µM | [11] > 100 µM | [12] > 100 µM | [13] > 100 µM | [14] > 100 µM | [15] 13.8 µM | [54] > 100 µM | [16] > 100 µM | [17] > 100 µM | [18] > 100 µM | [19] > 100 µM | [20] > 100 µM | [21] > 100 µM | [22] > 100 µM | [23] > 100 µM | [24] > 100 µM | [25] > 100 µM | [26] > 100 µM | [27] > 100 µM | [28] > 100 µM | [55] > 100 µM | [30] > 100 µM | [31] > 100 µM | [33] > 100 µM | [34] > 100 µM | [35] > 100 µM | [36] > 100 µM | [37] > 100 µM | [38] > 100 µM | [39] > 100 µM | [40] > 100 µM | [41] > 100 µM | [42] > 100 µM | [43] > 100 µM | [44] > 100 µM | [45] > 100 µM | [46] > 100 µM | [47] > 100 µM | [48] > 100 µM | [49] > 100 µM | [50] > 100 µM | [51] > 100 µM
> 100 µM: [10]
